The text below walks through data of BindingDB's records for doi:10.1126/scitranslmed.abb5883 (University of North Carolina at Chapel Hill, 2020).

For experiment [1], the target named is T1, Replicase polyprotein 1ab (Severe acute respiratory syndrome coronavirus 2, UniProt P0DTD1). The experiment is described as follows: SARS-CoV-2 in Vero E6. The procedure:
Vero E6 cells were plated at 20,000 cells/well in a 96-well plate. 24hr later, medium containing a dose response of NHC was added concurrent with SARS-CoV-2 (2019-nCoV/USA-WA1/2020 strain) at an MOI of 0.05. 48 hours post infection, cell viability was measured by CellTiter Glo assay.

In experiment [2] the target is T1, Replicase polyprotein 1ab. Briefly: SARS-CoV-2 in Calu-3. On the procedure: Calu-3 2B4 cells were adsorbed with MOI 0.1 PFU/cell of SARS-CoV-2 (2019-nCoV/USA-WA1/2020 strain) at 37°C. Plates were manually rocked every 10 min to redistribute the inoculum. After 30 min, virus inoculum was removed, cells were washed with Phosphate buffered saline (PBS) once to remove unbound virus, medium containing NHC or vehicle control (DMSO) was added back onto the cells, and cells were incubated for 72 hours at 37°C.

Where “and” joins values, the source holds several entries; their conditions need not be identical. Equal entries are not always repeated.

`O=c1nc(NO)ccn1[C@@H]1O[C@H](CO)[C@@H](O)[C@H]1O` [NHC]: the IC50 in experiment [1] is 300 nM; in experiment [2], 80 nM and 90 nM.
